Format in all cases: cell-based, mouse
Test [1] relates to IL-1β production in murine peritoneal macrophages (PECs). Kind of test: IL-1β secretion (ELISA) by primed, ATP-pulsed peritoneal macrophages (PECs). The settings on record: for IL-1β production in response to NECA and CGS21680: with PKA inhibition. Here is the method:
FIGS. 1A-1J illustrate the finding that adenosine stimulates IL-1β production in NLRP3 inflammasome-dependent manner. Murine peritoneal macrophages (PECs) were obtained from wild type (WT) mice (FIGS. 1A-1D, 1F-1I), Il1r−/− (FIG. 1E) or Nlrp3−/−, ASC−/−, P2xr7−/−, or Caspase-1−/− mice (FIG. 1J) and were primed with LPS for 16 hours. FIG. 1A: This was followed by treatment for 1 hour with adenosine (Ad, 100 μM), adenosine deaminase inhibitor (EHNA, 10 μM), adenosine deaminase (ADA, 10 U ml^−1), ATP diphosphohydrolase (Apyrase, 10 U ml^−1), or erythro-9-(2-hydroxy-3-nonyl) adenine (EHNA, 10 μM) (FIGS. 1B, 1F-1J)). Pan adenosine agonist (NECA, 1 μM, 10 μM) (FIGS. 1C, 1E), or (FIGS. 1D, 1I) by NECA for 1 and 6 hours, and were then pulsed with ATP for 20 min. Enzyme-linked immunosobent assay (ELISA) of IL-1β, TNF-α, IL-10 and IFN-γ secretion were measured in cell supernatants after pulsing with ATP for 5 hours (FIGS. 1A, 1C-1E, 1J) or indicated time-course (FIGS. 1B, 1G-1I). LDH assay was performed after pulsing with ATP as indicated time-course (FIG. 1F). Data are expressed as the mean±SD from at least three independent experiments. *p<0.05 determined by Student's t-test.
C57BL/6 mice were purchased from the National Cancer Institute. ASC−/−, Caspase-1−/−, Nlrp3−/− and P2xr7−/− mice have been described (Rock et al., 2010, Annu Rev Immunol. 28:321-42). A2ora2a flox/flox mice and LysMcre mice were purchased from Jackson Laboratories. HIF-1a flox/flox mice were kindly provided by Dr. Ruslan M Medzhitov (Yale University). 7- to 12-week-old males with a variety of genetic manipulations were used in most experiments. The number of mice in each experimental group was chosen based on previous experience with these experimental models. Mouse peritoneal macrophages (PECs) were isolated by peritoneal lavage 3 days after intraperitoneal injection of 4% thioglycollate solution (B2551, Fluka,). Cells were plated at the density of 3×10^6 cells in 12-well dishes and non-adherent cells were removed after 3 h. Cells primed overnight with 100 ng/ml LPS or 10 ng/ml Pam3CSK4 were treated with various chemicals and followed stimulation. Cells were cultured in DMEM medium complemented with 10% FBS, penicillin/streptomycin and L-glutamine. Mouse bone marrow derived macrophages were isolated from bone marrow cells, and were differentiated for 7 days in complete RPMI-1640 medium supplemented with 2 mM L-glutamine, 100 U/ml penicillin, 100 μg/ml streptomycin, 50 μM 2-mercaptoethanol (all from Invitrogen), 10% heat-inactivated FBS and 20 ng/ml M-CSF (PeproTech). Kupffer cells (KC) were isolated by the density gradient separation of Optiprep (Sigma), and then plates were gently washed and media was replenished after seeding cells for 2 hours to raise KC purity.
Primed PECs were both pulsed for 20 min with 5 mM ATP or 10 μM nigericin, and left untreated until culture supernatants were collected. Secretion of IL-1β was determined by enzyme-linked immunoabsorbent assay (ELISA; R&D Systems).
Background: In an ELISA, binding on a coated surface is turned into a signal by an enzyme label.

Test [2] deals with Il1b and other genes in PECs. Kind of test: Quantitative real-time RT-PCR gene expression in PECs. The settings on record: LPS primed PECs, NECA. Here is the method:
(§1) FIGS. 3A-3I illustrate the finding that adenosine supersedes LPS induced tolerance and increases IL-1β production by upregulating transcription of pro-IL-1β via cAMP-PKA pathway. PECs were used in all of the following experiments. FIG. 3A: Primed (pri) with LPS (100 ng/ml) for 16 hours followed by stimulation (stim) with LPS (100 ng/ml), or NECA (10 μM) or CGS21680 (10 μM) in the presence or absence of LPS (100 ng/ml) for 6 hours. FIG. 3B: Treated with forskolin for 6 hours as indicated doses with and without LPS priming FIG. 3C: Treated with or without NECA (10 μM), CGS21680 (10 μM) or db-cAMP (200 μM) for 6 hours. FIG. 3D: LPS primed and treated with NECA or CGS21680 in the presence and absence of SQ22536, H89 and PKi. FIG. 3E: Primed with LPS for 16 hours and treated with ATP for 20 min, followed by CGS 21680 in the presence or absence of the adenylyl cyclase and PKA inhibitors SQ22536 and H-89. FIG. 3F: Primed with LPS and treated with or without NECA (10 μM) or db-cAMP (200 μM) for 6 hours. FIG. 3G: Treated with or without CGS21680 (10 μM) for 3 hours, and transcription was stopped by adding […] actinomycin D, and RNA samples collected at indicated times-points. FIG. 3H: LPS primed PECs obtained from wild type or A2AR-cKO mice were stimulated with NECA (10 μM) for 6 hours. The cells were harvested and RNA isolated after each treatment and the gene expression of Il1b and other genes as indicated quantified by real-time PCR using specific primers. FIG. 3I: Primed with LPS for 16 hours and treated with ATP for 20 min, followed by CGS 21680 in the presence or absence of SQ22536 or H-89 Immunoblot analysis of the proIL-1β caspase-1 in cell lysate was performed by specific […] and anti caspase-1 p10 antibodies (FIGS. 3C, 3E-3F, 3I). Data are expressed as the mean±SD from three independent experiments Immunoblots shown are representative results from at least three independent experiments. *p<0.05 determined by Student's t-test.
FIGS. 9A-9H illustrate changes in expression of cytokines and tissue repair genes in peritoneal macrophages in response to adenosine agonists. LPS naive or LPS primed PECs were stimulated with LPS (100 ng ml^−1), CGS21680 (10 μM) or NECA (10 μM) at different time points as indicated. The cells were harvested and RNA isolated after each treatment, and the gene expression of ProIL-1β (Il1b) (FIG. 9A), IL-6 (Il6) (FIG. 9B), IL-4 (Il4) (FIG. 9C), TNF-α (tnfa) (FIG. 9D), TIMP-1 (Timp1) (FIG. 9E), VEGF (vegf) (FIG. 9F), PGK-1 (Pgk1) (FIG. 9G), GLUT-1 (Slc2a1) (FIG. 9H) quantified by real-time PCR using each specific gene primer set as listed. Data are expressed as the mean±SD from three independent experiments. *p<0.05 determined by Student's t-test.
Total RNA was extracted using TRIZOL reagent (Invitrogen), and cDNA was generated with an oligo (dT) primer and the Superscript II system (Invitrogen, USA) followed by analysis using LightCycler 480 system (Roche). q-PCR was performed for Il1b using commercial primer-probe sets (Applied Biosystems Inc.) with DNA master Mix (Roche). Expression of GAPDH was used to standardize the samples, and the results were expressed as a ratio relative to control; q-PCR was performed for tnfa, 116, Txnip, Nlrp3, Hif1a, Timp1, using LightCycler 480 SYBR Green I master mix (Roche). Results were normalized based on the expression of β-actin.
For orientation: In qPCR the cycle at which signal appears reflects the starting amount.

For test [3], the system named is active caspase-1 / pro-IL-1β in PECs. The test is described as follows: Western blot of caspase-1 and pro-IL-1β in PECs. The settings on record: for CGS21680 induced increase in LPS/ATP induced active caspase-1: LPS/ATP + CGS21680 with inhibitor; for active (cleaved) caspase-1: in response to LPS/ATP. Here is the method: FIGS. 2A-2H illustrate the finding that adenosine mediates increase in IL-1β via the A2A receptor and amplifies signal 1 and signal 2 pathways. FIG. 2A: LPS primed PECs were treated with NECA (10 μM) in the presence or absence of […] different adenosine receptor antagonists for A1 (DPCPX, 10 nM), A2A (ZM 241385, 10 μM), A2B (MRS1706, 10 nM), A3 (MRS1523, 5 μM), or their combinations for 1 hour, and pulsed with ATP for 20 min. FIGS. 2A-2B: A2A receptor specific agonist (CGS21680) and antagonist ZM 241385 increase and block IL-1β production respectively. […] FIG. 2D: PEC's from A2A receptor deficient cells have low IL-1β production, which is not increased by NECA and CGS 21680. FIG. 2E: CGS21680 increases induction of Il1b mRNA expression, and this was decreased in A2A receptor deficient cells. FIG. 2F: Loss of the A2A receptor in macrophages results in much lower levels of Il1b protein A expression in response to LPS. FIG. 2G: CGS21680 and […] increases and decreases production of cleaved caspase-1, respectively. FIG. 2H: The production of cleaved caspase-1 is decreased in A2A receptor deficient macrophages. Data are expressed as the mean±SD from at least three independent experiments Immunoblots shown are representative results from at least three independent experiments. p<0.05 determined by Student's t-test.
as §1
Liver tissue lysates or PECs were lysed in RIPA buffer (10 mM phosphate buffer pH 7.4, 150 mM NaCl, 1% NP-40, 0.5% sodium deoxycholate, 0.1% SDS) supplemented with complete protease inhibitor cocktail (Roche) and 2 mM dithiothreitol. Lysates were resolved in 4-12% Tris-glycine gradient gels (Invitrogen) and transferred to nitrocellulose (Invitrogen) by electro-blotting. The following antibodies were used: rabbit anti-caspase-1 p10 (SC-514, Santa Cruz), goat anti-mouse IL-1β (BAF401, R&D Systems), Rabbit antimouse HIF-1α (NB100-449, Novus Biologicals, Littleton, Colo.).
(In general: Immunoblotting shows a protein as a band on a membrane.)

Where [4] appears, read: LPS-primed PECs pulsed with ATP.

Where no end group is shown, it is not given here.

For `COC(=O)c1ccc(O)c(NC(=O)COc2ccc(C34CC5CC(CC(C5)C3)C4)cc2)c1` [CAY10585], in test [1] (LPS primed PECs, ATP pulse), the “adenosine agonist induced IL-1β production” value was “significantly decrease”. The “adenosine agonist induced Il1b expression” value in test [2] is reported as “significantly decrease”.

As for `O=S(=O)(NCCNC/C=C/c1ccc(Br)cc1)c1cccc2cnccc12` [H-89], in test [1], the “IL-1β production in response to NECA and CGS21680” value is recorded as “significantly reduced”. Moreover, the “CGS21680 induced increase in LPS/ATP induced active caspase-1” value in test [3] is “reduced”.

As to `Nc1ncnc2c1ncn2C1CCCO1` (stereo not drawn) [SQ22536], in test [1] (with adenylate cyclase inhibitor), the “increase in IL-1β induced by CGS21680 and EHNA” value is “block”. Further, in test [3], the “CGS21680 induced increase in LPS/ATP induced active caspase-1” value is given as “reduced”.

Regarding `Nc1nc(NCCc2ccc(O)cc2)nc2nc(-c3ccco3)nn12` [ZM241385], the “NECA-increased IL-1β production” value in test [1] (LPS + ATP + NECA with receptor antagonist) is reported as “inhibited”. In test [1] (LPS + ATP with antagonist), the “IL-1β production stimulated by CGS21680, NECA and EHNA” value is on record as “inhibited”. Besides, in test [1] (setting [4]), the IL-1β production entry is on record as “block”. Also, in test [3], the “CGS21680 induced increase in LPS/ATP induced active caspase-1” value is “inhibited” and the “active (cleaved) caspase-1” value is listed as “decreased”. In test [3] (listed as ZM241395), the “active (cleaved) caspase-1” value is reported as “decreases”.

Turning to `Nc1ncnc2c1ncn2[C@@H]1O[C@H](CO)[C@@H](O)[C@H]1O` [adenosine], the IL-1β production result was “significantly increased” in test [1] (setting [4]) and “did not result in any detectable IL-1β” in test [1] (in the absence of either LPS or ATP).

With `CCCC(=O)Nc1ncnc2c1ncn2[C@@H]1O[C@@H]2COP(=O)([O-])O[C@H]2[C@H]1OC(=O)CCC.[Na+]` [db-cAMP, N6,2′-O-Dibutyryladenosine 3′,5′-cyclic monophosphate sodium salt], the “up-regulation of Pro-IL-1β” value in test [3] (6 hours, FIG. 3C) is recorded as “induced up-regulation”. The pro-IL1β protein levels entry in test [3] (cells from A2AR-cKO mice) is reported as “increase”.

For the molecule “PKI 14-22 amide (SGRTGRRNA-NH2; UniProt P61925 14-22, looked up, fragment)”, the “IL-1β production in response to NECA and CGS21680” value in test [1] was “significantly reduced”.

B1: adenosine deaminase: Adenosine deaminase obtained from Worthington Biochemical corporation (protein, UniProt P56658 2-363, looked up)
Adenosine deaminase: AQTPAFNKPKVELHVHLDGAIKPETILYYGRKRGIALPADTPEELQNIIGMDKPLSLPEFLAKFDYYMPAIAGCREAVKRIAYEFVEMKAKDGVVYVEVRYSPHLLANSKVEPIPWNQAEGDLTPDEVVSLVNQGLQEGERDFGVKVRSILCCMRHQPSWSSEVVELCKKYREQTVVAIDLAGDETIEGSSLFPGHVKAYAEAVKSGVHRTVHAGEVGSANVVKEAVDTLKTERLGHGYHTLEDATLYNRLRQENMHFEVCPWSSYLTGAWKPDTEHPVVRFKNDQVNYSLNTDDPLIFKSTLDTDYQMTKNEMGFTEEEFKRLNINAAKSSFLPEDEKKELLDLLYKAYGMPSPASAEQCL
As for B1, the IL-1β production entry in test [1] (setting [4]) was “significant reduction”.

The values are drawn from patent publication US10624917B2, “Compositions and methods useful for treating or preventing liver diseases or disorders, and promoting weight loss” (YALE UNIVERSITY, priority 2014, dated 2020).
